Two molecules from the NIST ThermoML archive (doi:10.1016/j.tca.2011.07.006) can be followed below.

Series [1] is described as follows: Molar enthalpy of transition or fusion. Conditions: Crystal; DSC.
For series [2] the following is noted: Crystal; DTA.

± gives the expanded uncertainty stated by the source.

As to `CCn1cc[n+](C)c1.[Cl-]` [1-ethyl-3-methylimidazolium chloride], the “Molar enthalpy of transition or fusion” value in series [1] is 3.61 ± 0.311 kcal/mol. In series [2], the Normal melting temperature is 97.0 ± 0.5 °C.

For `CCn1cc[n+](C)c1.[Cl-].[Cl][Al]([Cl])[Cl]` [1-ethyl-3-methyl-1H-imidazolium tetrachloroaluminate], in series [1], the “Molar enthalpy of transition or fusion” value turned out to be 3.3 ± 0.167 kcal/mol. Besides, the Normal melting temperature in series [2] was 6.5 ± 0.5 °C.
